Experimental data as given in patent US20240261243A1, “NITRIC OXIDE DONORS, COMPOSITIONS, AND METHODS OF USE” (priority 2020, published 2024).
Converted amounts (≈) assume the structure as drawn. Marks after values point to notes of the source that are not given here.

Tests used:
[1] = test system: P. aeruginosa strains; assay: MIC/MBC of BIOC76 and gallium citrate alone against 21 strains; format: cell-based, Pseudomonas aeruginosa; details: for MBC Rep 1 / MIC Rep 1: alone
Source text: Determined the MIC of each test article individually against the strains being tested using the CLSI MIC/MBC method.
In this study, we established the MIC/MiBC's of BIOC76 and gallium citrate alone against each of 21 P. aeruginosa strains. […] The activity of both compounds is also strain-dependent. The results are as follows (the species for each strain is Pseudomonas aeruginosa: […]

[2] = test system: P. aeruginosa strain PAK
Procedure: All test articles are prepared at 4×→diluted 1:1 when other TA is added (2×), and diluted 1:1 again to 1× when bacteria are added
Experimental Design: The MIC of BIOC76 and Gallium nitrate individually, then set up a checkerboard assay testing 49 combinations of BIOC76 and Gallium nitrate concentrations against 10^6 CFU/ml P. aeruginosa strain PAK. Plates were incubated at 37° C. for 18-24 h, and growth was assessed visually.

[3] = test system: P. aeruginosa (PAK); assay: Combination MIC/MBC assay, BIOC76 with fixed gallium citrate; format: cell-based, Pseudomonas aeruginosa
Procedure: Combination MIC/MBC assays are useful when you want to look at only a few concentrations of one compound (Gallium citrate) combined with many concentrations of the second compound (BIOC76).
This method also allows us to see the change in both the MIC and MBC of a drug when in combination with another drug. Checkerboard assays only allow us to see changes in the MIC's.
Test articles are added to a 96-well plate so that when a 2× bacterial culture (prepared to 10^6 CFU/ml) is added, the final concentration in all wells was 1×.
All test articles are prepared at 4×→diluted 1:1 when other TA is added (2×) and diluted 1:1 again to 1× when bacteria are added.
TA #1 (Gallium citrate) is prepared and added to entire rows of a plate at a single concentration.
TA #2 (BIOC76) in then prepared and serially diluted in TA #1, so there are 2-fold dilutions of TA #2 combined with a single concentration of TA #1.
Plates were incubated at 37° C. for 18-24 h.
The ΔMIC/IBC is used to show the change in the MIC/IBC of BIOC76 when in combination with Gallium citrate (compared to when BIOC76 is used alone).
ΔMIC/MBC is the fold-decrease in BIOC76 concentration as a result of the combination.
We concluded BIOC76 and gallium citrate maintain synergistic activity so long as the gallium concentration is at least about 0.005 to about 0.02 mg/ml. In this experimental, we set up MIC/MBC assay and serially diluted BIOC76 in rows with fixed concentrations of gallium citrate. […] The results are shown in FIG. 6, and in the following tables: […]

[4] = test system: P. aeruginosa biofilms; assay: Biofilm eradication (MBEC) on peg lid
[5] = NO storage and release measurement (chemiluminescence nitric oxide analyzer); format: physicochemical
Procedure: N-diazeniumdiolates NO scaffolds are pH-triggered NO-release donors. Reacting with proton in the physiological condition (e.g., 37° C., pH 7.4), 1 mole of N-diazeniumdiolate regenerates 1 mole of the parent secondary amine compounds and two moles of NO radicals. The real-time detection of NO was performed by using a chemiluminescence-based nitric oxide analyzer (NOA). The total NO storage and dissociation kinetics of water-soluble NO Donors were measured in physiological condition (pH 7.40, 37° C.). The resulting NO-release parameters (e.g., total NO storage, half-life of NO release, maximum flux, and conversion efficiency) were evaluated for suitability as a pharmaceutical product.
Transfer the solution into the high-pressure vessel and purge the headspace with nitrogen. Mix the solution and set nitric oxide pressure to 25 bar (temp 20° C.). Allow the reaction to run for minimum of 3 days. Stop the reaction by venting the NO. Precipitate the reaction product in acetone (10:1 acetone:reaction mixture). Filter the precipitate and vacuum dry.
We sought to determine whether an NO donor and gallium nitrate have antimicrobial synergy against a lab strain of P. aeruginosa (PAK). The Checkerboard assay (described herein) was used with a hepta-substituted cyclodextrin-based NO donor (hereinafter referred to as BIOC76) having approximately ˜4.7 μmol NO/mg dry powder.

[6] = strain N0049 (PAK), with 0.0156 mg/ml GaCi
[7] = strain N0049 (PAK), with 0.0325 mg/ml GaCi
[8] = strain N0049 (PAK), with 0.065 mg/ml GaCi
[9] = strain N0049 (PAK), with 0.125 mg/ml GaCi
[10] = strain N0049 (PAK), with 0.25 mg/ml GaCi
[11] = strain N0049 (PAK), with 0.5 mg/ml GaCi
[12] = strain N0049 (PAK), with 1 mg/ml GaCi
[13] = strain N0049 (PAK), with 2 mg/ml GaCi

SMILES: O=NN(O)N(CCO)CC1OC2OC3C(CN(CCO)N(O)N=O)OC(OC4C(CN(CCO)N(O)N=O)OC(OC5C(CN(CCO)N(O)N=O)OC(OC6C(CN(CCO)N(O)N=O)OC(OC7C(CN(CCO)N(O)N=O)OC(OC8C(CN(CCO)N(O)N=O)OC(OC1C(O)C2O)C(O)C8O)C(O)C7O)C(O)C6O)C(O)C5O)C(O)C4O)C(O)C3O (centres unmarked) [BIOC76]
- mode of activity alone (conclusion) ([1]; 21 P. aeruginosa strains): largely bacteriostatic
- MBC Rep 1 ([1]; strain N0047 (AR-BANK #103)): 8000 µg/mL
- MIC Rep 1 ([1]; strain N0047 (AR-BANK #103)): 2000 µg/mL
- MBC Rep 1 ([1]; strain N0048 (ATCC 19143)): 2000 µg/mL
- MIC Rep 1 ([1]; strain N0048 (ATCC 19143)): 500 µg/mL
- MBC Rep 1 ([1]; strain N0049 (PAK)): 4000 µg/mL
- MIC Rep 1 ([1]; strain N0049 (PAK)): 2000 µg/mL
- MBC Rep 1 ([1]; strain N0050 (AR-BANK #0095)): 8000 µg/mL
- MIC Rep 1 ([1]; strain N0050 (AR-BANK #0095)): 2000 µg/mL
- MBC Rep 1 ([1]; strain N0051 (AU32077)): 4000 µg/mL
- MIC Rep 1 ([1]; strain N0051 (AU32077)): 1000 µg/mL
- MBC Rep 1 ([1]; strain N0052 (AU25834)): 2000 µg/mL
- MIC Rep 1 ([1]; strain N0052 (AU25834)): 1000 µg/mL
- MBC Rep 1 ([1]; strain N0053 (AU30524)): 16000 µg/mL
- MIC Rep 1 ([1]; strain N0053 (AU30524)): 4000 µg/mL
- MBC Rep 1 ([1]; strain N0054 (AU26773)): 16000 µg/mL
- MIC Rep 1 ([1]; strain N0054 (AU26773)): 2000 µg/mL
- MBC Rep 1 ([1]; strain N0055 (AU22725)): >8000 µg/mL
- MIC Rep 1 ([1]; strain N0055 (AU22725)): 1000 µg/mL
- MBC Rep 1 ([1]; strain N0056 (AU22505)): 16000 µg/mL
- MIC Rep 1 ([1]; strain N0056 (AU22505)): 8000 µg/mL
- MBC Rep 1 ([1]; strain N0057 (AU35400)): 32000 µg/mL
- MIC Rep 1 ([1]; strain N0057 (AU35400)): 8000 µg/mL
- MBC Rep 1 ([1]; strain N0058 (AU32543)): 8000 µg/mL
- MIC Rep 1 ([1]; strain N0058 (AU32543)): 2000 µg/mL
- MBC Rep 1 ([1]; strain N0059 (AR-BANK #0054)): >16000 µg/mL
- MIC Rep 1 ([1]; strain N0059 (AR-BANK #0054)): 2000 µg/mL
- MBC Rep 1 ([1]; strain N0069 (AR-BANK #0090)): >16000 µg/mL
- MIC Rep 1 ([1]; strain N0069 (AR-BANK #0090)): 2000 µg/mL
- MBC Rep 1 ([1]; strain N0070 (AR-BANK #0092)): >16000 µg/mL
- MIC Rep 1 ([1]; strain N0070 (AR-BANK #0092)): 2000 µg/mL
- MBC Rep 1 ([1]; strain N0071 (AR-BANK #0100)): >16000 µg/mL
- MIC Rep 1 ([1]; strain N0071 (AR-BANK #0100)): 2000 µg/mL
- MBC Rep 1 ([1]; strain N0072 (AR-BANK #0105)): >16000 µg/mL
- MIC Rep 1 ([1]; strain N0072 (AR-BANK #0105)): 2000 µg/mL
- MBC Rep 1 ([1]; strain N0079 (AR-BANK #0108)): >16000 µg/mL
- MIC Rep 1 ([1]; strain N0079 (AR-BANK #0108)): 2000 µg/mL
- MBC Rep 1 ([1]; strain N0080 (AR-BANK #0110)): >16000 µg/mL
- MIC Rep 1 ([1]; strain N0080 (AR-BANK #0110)): 2000 µg/mL
- MBC Rep 1 ([1]; strain N0081 (AR-BANK #0111)): >16000 µg/mL
- MIC Rep 1 ([1]; strain N0081 (AR-BANK #0111)): 2000 µg/mL
- MBC Rep 1 ([1]; strain N0099 (ATCC 29260)): 8000 µg/mL
- MIC Rep 1 ([1]; strain N0099 (ATCC 29260)): 2000 µg/mL
- MIC BIOC76 alone [2]: 1000 µg/mL (≈ 539 µM)
- MIC BIOC76 combo ([2]; in combination with Ga(NO3)3): 125 µg/mL
- MIC BIOC76 ([3]; PAK, alone): 2000 µg/mL
- Combo MIC BIOC76 ([3]; PAK, with 0.0039 mg/ml GaCi): 2000 µg/mL
- Combo MIC BIOC76 ([3]; PAK, with 0.0078 mg/ml GaCi): 1000 µg/mL
- Combo MIC BIOC76 ([3]; PAK, with 0.0156 mg/ml GaCi): 250 to 500 µg/mL
- Combo MIC BIOC76 ([3]; PAK, with 0.0313 mg/ml GaCi): 125 µg/mL
- MBC BIOC76 alone ([3]; strain N0049 (PAK)): 4000 µg/mL
- MIC BIOC76 alone ([3]; strain N0049 (PAK)): 2000 µg/mL
- Combo MBC BIOC76 [3, 6]: 4 mg/mL
- Δ MBC [3, 6]: 0 fold-decrease
- Δ MIC [3, 6]: 4 fold-decrease
- Combo MBC BIOC76 [3, 7]: 4 mg/mL
- Combo MIC BIOC76 [3, 7]: 125000 µg/mL
- Δ MBC [3, 7]: 0 fold-decrease
- Δ MIC [3, 7]: 16 fold-decrease
- Combo MBC BIOC76 [3, 8]: 4 mg/mL
- Combo MIC BIOC76 [3, 8]: <60 µg/mL
- Δ MBC [3, 8]: 0 fold-decrease
- Combo MBC BIOC76 [3, 9]: 4 mg/mL
- Combo MIC BIOC76 [3, 9]: <60 µg/mL
- Δ MBC [3, 9]: 0 fold-decrease
- Combo MBC BIOC76 [3, 10]: 2 mg/mL
- Combo MIC BIOC76 [3, 10]: <60 µg/mL
- Δ MBC [3, 10]: 2 fold-decrease
- Combo MBC BIOC76 [3, 11]: 2 mg/mL
- Combo MIC BIOC76 [3, 11]: <60 µg/mL
- Δ MBC [3, 11]: 2 fold-decrease
- Combo MBC BIOC76 [3, 12]: 4* mg/ml
- Combo MIC BIOC76 [3, 12]: <60 µg/mL
- Δ MBC [3, 12]: 0* fold-decrease
- Combo MBC BIOC76 [3, 13]: 2 mg/mL
- Combo MIC BIOC76 [3, 13]: <60 µg/mL
- Δ MBC [3, 13]: 2 fold-decrease
- MBEC of BIOC76 ([4]; PAK (N0049), 3-log reduction in biofilm): 4 mg/mL
- effectiveness against P. aeruginosa biofilms ([4]; biofilms grown under aerobic conditions): effective
- NO content [5]: ~4.7 μmol NO/mg dry powder
